In paper PMC5602130, “Food and Sex-Related Impacts on the Pharmacokinetics of a Single-Dose of Ginsenoside Compound K in Healthy Subjects” (Frontiers in Pharmacology, 2017):
Read-outs that look alike come from different tables or passages of the source.

Assays:
[1] = design: method as in unpublished; details: ref unpublished, cited from earlier work
[2] = Food-effect two-period crossover trial: plasma pharmacokinetics after a single 200 mg oral dose of Ginsenoside CK Tablets; assay type: in vivo, human; details: for Tmax: median (range)
Description: The food-effect trial was an open-label, randomized, two-period, two-treatment crossover trial, carried out from 15 January to 31 March 2015. Subjects (n = 24) were admitted to the clinical facility (Center of Clinical Pharmacology, the Third Xiangya Hospital, Central South University, Changsha, China) and randomized to receive a single 200 mg oral dose of Ginsenoside CK Tablets (4 × 50 mg tablets) either after a 10 h-fasting period or within 30 min after beginning the consumption of a recommended high-fat, high calorie breakfast (150 calories of protein, 250 calories of carbohydrates, 500 to 600 calories of fat; total calories approximately 800–1,000). Tablets were administered with 250 mL of water, to each subject, in each treatment period. Drinking was prohibited for 2 h before and after medication. Apart from this, the amount and time of drinking were not strictly controlled. Subjects had unified, standard meals 4 and 10 h after drug administration. The alternate treatment was conducted after a 14-day washout period.
Serial blood samples (5 mL) for PK assessment were collected from an indwelling catheter or by direct venipuncture prior to the administration (t = 0) and 0.25, 0.5, 1, 1.5, 2, 2.5, 3, 3.5, 4, 5, 6, 8, 12, 24, 36, 48, 72, and 96 h after the administration of ginsenoside CK. We inferred that these sampling times were sufficient for this trial, based on international guidelines (FDA, [2003]; CFDA, [2005]) and our previous results, since the sampling time is longer than at least three terminal half-lives of the drug. Additionally, the mean plasma concentrations of both CK and 20(S)-PPD at 96 h were considerably <1/20 of their Cmax even when the single oral dose at 800 mg (unpublished). Plasma was separated in blood collection tubes by centrifugation (3,000 rpm, 10 min) at 4°C within 1 h after sampling, transferred to labeled storage tubes and stored at −70°C pending workup and analysis.
Descriptive statistics of PK parameters were calculated using established non-compartmental methods, utilizing the WinNonLin version 6.1 software (Pharsight Corporation, USA). The PK parameters determined for each participant included apparent terminal half-life (t1/2), maximum plasma concentration (Cmax), time to Cmax (tmax), area under the plasma concentration-time curve from the time of administration up to the last time point with a measurable concentration post-dose (AUClast), AUC extrapolated to infinity (AUCinf), apparent volume of distribution (V/F), apparent plasma clearance (CL/F) after extravascular administration, mean residence time (MRTlast and MRTinf), and the cumulative excretion rate from urine. The t1/2 was estimated as (ln2)/K, where K represented the slope of the terminal phase of plasma concentration-time profile and was assessed with a weighting factor of 1, using least squares (log-linear regression of at least three data points). The Cmax and tmax were obtained from experimental observations. The values of AUC were calculated using conventional trapezoidal and log-trapezoidal methods and the extrapolated area (Rowland and Tozer, [1995]). CL/F and V/F were calculated as dose/AUCinf and (CL/F)/K, respectively. MRT was calculated as MRT = AUMC/AUC, where AUMC is the area under the first moment curve. The cumulative excretion rate was calculated as the amount of unchanged drug over a time interval in the urine divided by dose, and was expressed as a percentage.
All samples were detected using a LC-MS/MS (API 4000, ABI Company, USA) method, validated at the Institute of Clinical Pharmacology, Central South University (Changsha, China). Concentrations of CK and 20(S)-PPD were measured using a triple quadrupole tandem mass spectrometer in multiple reaction monitoring (MRM) mode, via a positive electrospray ionization source at m/z 621.4→ 160.8 for the CK and m/z 461.5→425.3 for 20(S)-PPD, with a dwell time of 200 ms. […]

[3] = both sexes, human, plasma, po, 200 mg, single oral 200 mg CK, FO, all subjects
[4] = female, human, plasma, po, 200 mg, single oral 200 mg CK, FO
[5] = female, human, plasma, po, 200 mg, single oral 200 mg CK, HF
[6] = geometric mean ratio FO vs. HF, n = 24
[7] = human, plasma, po, 200 mg, single oral 200 mg CK, FO, all subjects
[8] = human, plasma, po, 200 mg, single oral 200 mg CK, HF, all subjects
[9] = male, human, plasma, po, 200 mg, single oral 200 mg CK, FO
[10] = male, human, plasma, po, 200 mg, single oral 200 mg CK, HF
[11] = plasma, single oral 200 mg CK, FO, female
[12] = plasma, single oral 200 mg CK, FO, male
[13] = plasma, single oral 200 mg CK, HF, male
[14] = single oral 200 mg CK, FO, all subjects
[15] = single oral 200 mg CK, FO, female
[16] = single oral 200 mg CK, FO, male
[17] = single oral 200 mg CK, HF, all subjects
[18] = single oral 200 mg CK, HF, female
[19] = single oral 200 mg CK, HF, male

CC(C)=CCCC(C)(OC1OC(CO)C(O)C(O)C1O)C1CCC2(C)C1C(O)CC1C3(C)CCC(O)C(C)(C)C3CCC12C [CK, 20-O-beta-D-glucopyranosyl-20(S)-protopanaxadiol]
Effects on vital signs, laboratory tests or 12-lead ECG ([1]; dose range 100–400 mg): no significant effects
Dose range over which exposure increased linearly ([1]; previous clinical trial): 100 to 400 mg
Mean plasma concentration at 96 h as fraction of Cmax ([1]; single oral dose at 800 mg): < 1/20
Increase of Cmax, AUClast and AUCinf after HF meal compared to the FO condition ([2]; 24 subjects): about 2 fold
lgAUClast GMR (90%CI) ([2]; FO vs. HF (Female), n = 12): 0.38 (0.28–0.53)
lgCmax GMR (90%CI) ([2]; FO vs. HF (Female), n = 12): 0.45 (0.33–0.62)
lgAUClast GMR (90%CI) ([2]; FO vs. HF (Male), n = 12): 0.49 (0.42–0.57)
lgCmax GMR (90%CI) ([2]; FO vs. HF (Male), n = 12): 0.55 (0.46–0.65)
lgAUClast GMR (90%CI) ([2]; M vs. F (FO), n = 12): 0.74 (0.54–1.02)
lgCmax GMR (90%CI) ([2]; M vs. F (FO), n = 12): 0.77 (0.57–1.04)
lgAUClast GMR (90%CI) ([2]; M vs. F (HF), n = 12): 0.59 (0.46–0.75)
lgCmax GMR (90%CI) ([2]; M vs. F (HF), n = 12): 0.64 (0.46–0.88)
Subjects having measurable CK concentrations at 0.25 h after administration ([2]; after a meal, 20 of 24 subjects): 83%
half-life ([2]; both sexes, human, plasma, oral, 200 mg, FO and HF, male and female groups, read-out: mean t1/2, range over all treatments): 1440 to 1700 min
AUC(0-inf) [2, 3]: 5880 ng·h/mL
AUC(0-t) [2, 3]: 5750 ng·h/mL
AUC(0-t) ([2]; both sexes, human, plasma, po, 200 mg, single oral 200 mg CK, HF, all subjects): 12600 ng·h/mL
Tmax [2, 4]: 3.8 h
Cmax ([2]; female, human, plasma, po, 200 mg, plasma, single oral 200 mg CK, FO, female, read-out: Cmax): 921 ± 505 ng/mL
half-life ([2]; female, human, plasma, po, 200 mg, plasma, single oral 200 mg CK, FO, female, read-out: t1/2 (converted)): 1610 ± 324 min
Cmax ([2]; female, human, plasma, po, 200 mg, plasma, single oral 200 mg CK, HF, female, read-out: Cmax): 1840 ng/mL
half-life ([2]; female, human, plasma, po, 200 mg, plasma, single oral 200 mg CK, HF, female, read-out: t1/2 (converted)): 1540 ± 210 min
MRT inf [2, 4]: 14.5 ± 2.1 h
MRT last [2, 4]: 11.6 ± 1 h
MRT inf [2, 5]: 14.6 ± 1.5 h
MRT last [2, 5]: 12.2 ± 1 h
AUC(0-inf) [2, 4]: 6900 ng·h/mL
AUC(0-t) [2, 4]: 6750 ng·h/mL
AUC(0-inf) [2, 5]: 15900 ng·h/mL
AUC(0-t) [2, 5]: 15600 ng·h/mL
lgAUClast GMR (90%CI) [2, 6]: 0.43 (0.36–0.51)
lgCmax GMR (90%CI) [2, 6]: 0.50 (0.42–0.59)
Tmax [2, 7]: 3.6 h
half-life ([2]; human, plasma, po, 200 mg, plasma, single oral 200 mg CK, FO (fasting overnight), all subjects, read-out: t1/2 (converted)): 1660 ± 474 min
Cmax ([2]; human, plasma, po, 200 mg, plasma, single oral 200 mg CK, FO, all subjects, read-out: Cmax): 797 ± 406 ng/mL
half-life ([2]; human, plasma, po, 200 mg, plasma, single oral 200 mg CK, HF (high-fat meal), all subjects, read-out: t1/2 (converted)): 1490 ± 180 min
Cmax ([2]; human, plasma, po, 200 mg, plasma, single oral 200 mg CK, HF, all subjects, read-out: Cmax): 1570 ng/mL
MRT inf [2, 7]: 15.1 ± 4.3 h
MRT last [2, 7]: 11.7 ± 1.2 h
MRT inf [2, 8]: 14.6 ± 1.7 h
MRT last [2, 8]: 12.3 ± 1.2 h
Tmax [2, 9]: 3.4 h
Cmax ([2]; male, human, plasma, po, 200 mg, plasma, single oral 200 mg CK, FO, male, read-out: Cmax): 672 ± 236 ng/mL
half-life ([2]; male, human, plasma, po, 200 mg, plasma, single oral 200 mg CK, FO, male, read-out: t1/2 (converted)): 1700 ± 600 min
Cmax ([2]; male, human, plasma, po, 200 mg, plasma, single oral 200 mg CK, HF, male, read-out: Cmax): 1300 ng/mL
half-life ([2]; male, human, plasma, po, 200 mg, plasma, single oral 200 mg CK, HF, male, read-out: t1/2 (converted)): 1440 ± 144 min
MRT inf [2, 9]: 15.7 ± 5.7 h
MRT last [2, 9]: 11.9 ± 1.3 h
MRT inf [2, 10]: 14.5 ± 1.9 h
MRT last [2, 10]: 12.4 ± 1.4 h
AUC(0-inf) [2, 9]: 4860 ng·h/mL
AUC(0-t) [2, 9]: 4750 ng·h/mL
AUC(0-inf) [2, 10]: 9810 ng·h/mL
AUC(0-t) [2, 10]: 9630 ng·h/mL
AUClast [2, 11]: 6,747.5 ± 3,408.7 h·ng·ml^−1
Cmax [2, 11]: 921.4 ± 505.1 ng/mL
AUCinf [2, 12]: 4,857.1 ± 1,723.2 h·ng·ml^−1
AUClast [2, 12]: 4,749.9 ± 1,718.1 h·ng·ml^−1
Cmax [2, 12]: 672.2 ± 235.8 ng/mL
Cmax ([2]; plasma, single oral 200 mg CK, HF, female): 1,838.6 ± 404.4 ng·ml^−1
AUClast [2, 13]: 9,633.1 ± 3,313.5 h·ng·ml^−1
Cmax [2, 13]: 1,302.0 ± 632.9 ng·ml^−1
CL/F [2, 14]: 43.4 ± 24.2 L/h
V/F [2, 14]: 1,875 ± 1,899 L
CL/F [2, 15]: 38.0 ± 21.8 L/h
V/F [2, 15]: 1,427 ± 699 L
CL/F [2, 16]: 48.8 ± 26.3 L/h
V/F [2, 16]: 2,323 ± 2,572 L
CL/F [2, 17]: 18.2 ± 9.8 L/h
V/F [2, 17]: 652 ± 381 L
CL/F [2, 18]: 12.8 ± 1.8 L/h
V/F [2, 18]: 477 ± 109 L
CL/F [2, 19]: 23.6 ± 11.6 L/h
V/F [2, 19]: 828 ± 475 L
